Source: patent US20050124498A1, “Halobenzyl substituted phenylaceto esters and amides and use thereof for prevention of harmful organisms” (priority 2002, published 2005)

Tests used:
[1] = system: Erysiphe graminis f.sp. hordei; experiment: Erysiphe test (barley)/protective; format: in vivo; details: Blumeria graminis, 168 h, protective, application rate 500 g/ha, evaluation 7 days after inoculation, read-out: efficacy
Procedure: Erysiphe test (barley)/protective [table] To produce a suitable preparation of active compound, 1 part by weight of active compound is mixed with the stated amounts of solvent and emulsifier, and the concentrate is diluted with water to the desired concentration. To test for protective activity, young plants are sprayed with the preparation of active compound at the stated application rate. After the spray coating has dried on, the plants are dusted with spores of Erysiphe graminis f.sp. hordei. The plants are placed in a greenhouse at a temperature of about 20° C. and a relative atmospheric humidity of about 80% to promote the development of mildew pustules.

[2] = physchem
[3] = system: Phytophthora infestans; experiment: whole plant or invertebrate; format: in vivo; details: in Solanum lycopersicum, 72 h, read-out: efficacy
[4] = system: apple scab pathogen Venturia inaequalis; experiment: Venturia test (apple)/protective; format: in vivo; details: 240 h, protective, application rate 100 g/ha, evaluation 10 days after inoculation, read-out: efficacy
Procedure: Venturia test (apple)/protective […] To produce a suitable preparation of active compound, 1 part by weight of active compound is mixed with the stated amounts of solvent and emulsifier, and the concentrate is diluted with water to the desired concentration. To test for protective activity, young plants are sprayed with the preparation of active compound at the stated application rate. After the spray coating has dried on, the plants are inoculated with an aqueous conidia suspension of the apple scab pathogen Venturia inaequalis and then remain in an incubation cabin at about 20° C. and 100% relative atmospheric humidity for 1 day. The plants are then placed in a greenhouse at about 21° C. and a relative atmospheric humidity of about 90%.

[5] = system: Sphaerotheca fuliginea; experiment: Sphaerotheca test (cucumber)/protective; format: in vivo; details: Podosphaera fuliginea, 168 h, protective, application rate 100 g/ha, evaluation 7 days after inoculation, read-out: efficacy
Procedure: (§1) Sphaerotheca test (cucumber)/protective [table] To produce a suitable preparation of active compound, 1 part by weight of active compound is mixed with the stated amounts of solvent and emulsifier, and the concentrate is diluted with water to the desired concentration. To test for protective activity, young plants are sprayed with the preparation of active compound at the stated application rate. After the spray coating has dried on, the plants are inoculated with an aqueous spore suspension of Sphaerotheca fuliginea. The plants are then placed in a greenhouse at about 23° C. and about 70% relative atmospheric humidity.

[6] = system: apple mildew pathogen Podosphaera leucotricha; experiment: Podosphaera test (apple)/protective; format: in vivo; details: 240 h, protective, application rate 100 g/ha, evaluation 10 days after inoculation, read-out: efficacy
Procedure: as §1, with “Podosphaera” for “Sphaerotheca”, “(apple)/protective” for “(cucumber)/protective”, “the apple mildew pathogen Podosphaera leucotricha.” for “Sphaerotheca fuliginea.”

## CO/N=C(/C(=O)OC)c1c(F)cccc1Oc1ccccc1 [Example 3, methyl (2-fluoro-6-phenoxyphenyl)methoxyiminoacetate]
[1]
  pest or weed control at 500 g/ha: ≥ 98%
[2]; pH 2, log P (pH 2)
  chromatographic logP: 3.24

## CNC(=O)/C(=N/OC)c1c(F)cccc1Oc1ccccc1 [Example 4, 2-(2-fluoro-6-phenoxyphenyl)-2-methoxyimino-N-methylacetamide]
[1]
  pest or weed control at 500 g/ha: ≥ 98%
[2]; pH 2, log P (pH 2)
  chromatographic logP: 2.56

## CNC(=O)/C(=N/OC)c1ccc(F)cc1Oc1ncnc(Oc2ccccc2Cl)c1F [Example 7, N-methyl-2-{2-[6-(2-chlorophenoxy)-5-fluoropyrimidin-4-yloxy]-4-fluorophenyl}-2-methoxyiminoacetamide]
[3]
  pest or weed control at 100 g/ha: ≥ 86%
[4]
  pest or weed control at 100 g/ha: ≥ 97%
[5]
  pest or weed control at 100 g/ha: ≥ 98%
[2]; pH 2, log P (pH 2)
  chromatographic logP: 3.14

## CNC(=O)/C(=N/OC)c1c(F)cccc1COc1ccccc1C [Example 9, N-methyl-2-(2-fluoro-6-o-tolyloxymethylphenyl)-2-methoxyiminoacetamide]
[3]
  pest or weed control at 100 g/ha: ≥ 86%
[4]
  pest or weed control at 100 g/ha: ≥ 97%
[5]
  pest or weed control at 100 g/ha: ≥ 98%
[2]; pH 2, log P (pH 2)
  chromatographic logP: 3.03
[6]
  pest or weed control at 100 g/ha: ≥ 82%

## CNC(=O)/C(=N/OC)c1ccc(F)cc1Oc1ncnc(Oc2cccc(Cl)c2C)c1F [Example 10]
[1]
  pest or weed control at 500 g/ha: ≥ 98%
[2]; logP
  chromatographic logP: 3.62

## CNC(=O)/C(=N/OC)c1ccc(F)cc1Oc1ncnc(Oc2ccccc2C#N)c1F [Example 11]
[2]; logP
  chromatographic logP: 2.68

## CNC(=O)/C(=N/OC)c1ccc(F)cc1Oc1nc(C)c(Cl)c(OCC(F)(F)C(F)(F)F)n1 [Example 13]
[2]; logP
  chromatographic logP: 3.58

## CNC(=O)/C(=N/OC)c1ccc(F)cc1Oc1ncnc(Oc2ccccc2C)c1F [Example 15]
[3]
  pest or weed control at 100 g/ha: ≥ 86%
[4]
  pest or weed control at 100 g/ha: ≥ 97%
[5]
  pest or weed control at 100 g/ha: ≥ 98%
[2]; logP
  chromatographic logP: 3.2
[6]
  pest or weed control at 100 g/ha: ≥ 82%

## CNC(=O)/C(=N/OC)c1ccc(F)cc1Oc1ncnc(Oc2cccc(F)c2)c1F [Example 17]
[2]; logP
  chromatographic logP: 3.07

## CNC(=O)/C(=N/OC)c1ccc(F)cc1Oc1ncnc(Oc2cccc(C#N)c2)c1F [Example 18]
[2]; logP
  chromatographic logP: 2.71

## CNC(=O)/C(=N/OC)c1ccc(F)cc1Oc1ncnc(Oc2cccc(OC)c2)c1F [Example 19]
[2]; logP
  chromatographic logP: 2.91

## CNC(=O)/C(=N/OC)c1ccc(F)cc1Oc1ncnc(Oc2ccccc2OC)c1F [Example 20]
[2]; logP
  chromatographic logP: 2.82

## CNC(=O)/C(=N/OC)c1ccc(F)cc1Oc1ncnc(Oc2cccc(Cl)c2)c1F [Example 21]
[2]; logP
  chromatographic logP: 3.31

## CNC(=O)/C(=N/OC)c1ccc(F)cc1Oc1ncnc(Oc2ccccc2SC)c1F [Example 23]
[2]; logP
  chromatographic logP: 3.07

## CNC(=O)/C(=N/OC)c1ccc(F)cc1Oc1ncnc(Oc2ccc(SC)cc2)c1F [Example 24]
[2]; logP
  chromatographic logP: 3.24

## CNC(=O)/C(=N/OC)c1ccc(F)cc1Oc1ncnc(Oc2cc(C)ccc2Cl)c1F [Example 25]
[2]; logP
  chromatographic logP: 3.45

## CNC(=O)/C(=N/OC)c1ccc(F)cc1Oc1ncnc(Oc2ccc(F)cc2Cl)c1F [Example 26]
[2]; logP
  chromatographic logP: 3.27

## CNC(=O)/C(=N/OC)c1ccc(F)cc1Oc1ncnc(Oc2ccccc2OC(C)C)c1F [Example 27]
[2]; logP
  chromatographic logP: 3.32

## CNC(=O)/C(=N/OC)c1ccc(F)cc1Oc1ncnc(Oc2ccc(SC)c(C)c2)c1F [Example 28]
[2]; logP
  chromatographic logP: 3.54

## CNC(=O)/C(=N/OC)c1ccc(F)cc1Oc1ncnc(Oc2ccc(OC)cc2Cl)c1F [Example 29]
[2]; logP
  chromatographic logP: 3.2

## CNC(=O)/C(=N/OC)c1ccc(F)cc1Oc1ncnc(Oc2cccc(C(F)(F)F)c2)c1F [Example 30]
[2]; logP
  chromatographic logP: 3.46

## CNC(=O)/C(=N/OC)c1ccc(F)cc1Oc1ncnc(Oc2ccc(C(F)(F)F)cc2)c1F [Example 32]
[2]; logP
  chromatographic logP: 3.49

## CNC(=O)/C(=N/OC)c1ccc(F)cc1Oc1ncnc(Oc2cccc(Cl)c2Cl)c1F [Example 33]
[3]
  pest or weed control at 100 g/ha: ≥ 86%
[4]
  pest or weed control at 100 g/ha: ≥ 97%
[5]
  pest or weed control at 100 g/ha: ≥ 98%
[2]; logP
  chromatographic logP: 3.53
[6]
  pest or weed control at 100 g/ha: ≥ 82%

## CNC(=O)/C(=N/OC)c1ccc(F)cc1Oc1ncnc(Oc2ccccc2Br)c1F [Example 34]
[2]; logP
  chromatographic logP: 3.22

## CNC(=O)/C(=N/OC)c1ccc(F)cc1Oc1ncnc(Oc2ccccc2OC(F)(F)F)c1F [Example 35]
[4]
  pest or weed control at 100 g/ha: ≥ 97%
[5]
  pest or weed control at 100 g/ha: ≥ 98%
[2]; logP
  chromatographic logP: 3.27
[6]
  pest or weed control at 100 g/ha: ≥ 82%

## CNC(=O)/C(=N/OC)c1ccc(F)cc1Oc1ncnc(Oc2cccc(OC(F)(F)F)c2)c1F [Example 36]
[2]; logP
  chromatographic logP: 3.46

## CNC(=O)/C(=N/OC)c1ccc(F)cc1Oc1ncnc(Oc2ccc(Br)cc2C)c1F [Example 37]
[2]; logP
  chromatographic logP: 3.57

## CNC(=O)/C(=N/OC)c1ccc(F)cc1Oc1ncnc(Oc2ccc(OC(F)(F)F)cc2C)c1F [Example 38]
[2]; logP
  chromatographic logP: 3.71

## CNC(=O)/C(=N/OC)c1ccc(F)cc1Oc1ncnc(Oc2ccc(SC(F)(F)F)cc2)c1F [Example 39]
[2]; logP
  chromatographic logP: 3.75

## CO/N=C(/C(=O)OC)c1c(F)cccc1CO/N=C1\CCc2ccc(OC)cc21 [Example 49]
[2]; logP
  chromatographic logP: 3.65

## CNC(=O)/C(=N/OC)c1c(F)cccc1CO/N=C1\CCc2ccc(OC)cc21 [Example 52]
[2]; logP
  chromatographic logP: 3.08

## CO/N=C(/C(=O)OC)c1c(F)cccc1Oc1cc(C(F)(F)F)ncn1 [Example 53]
[2]; logP
  chromatographic logP: 2.91

## CO/N=C(\C(C)=N\OCc1cccc(F)c1/C(=N\OC)C(=O)OC)c1ccc(F)cc1F [Example 54]
[2]; logP
  chromatographic logP: 4.13

## CNC(=O)/C(=N/OC)c1c(F)cccc1CO/N=C(C)/C(=N\OC)c1ccc(F)cc1F [Example 55]
[2]; logP
  chromatographic logP: 3.57

## CNC(=O)/C(=N/OC)c1c(F)cccc1CO/N=C(C)/C(=N\OC)c1ccc(C)cc1 [Example 58]
[2]; logP
  chromatographic logP: 3.71

## CNC(=O)/C(=N/OC)c1c(F)cccc1CO/N=C(C)/C(=N\OC)c1ccc(F)cc1 [Example 59]
[2]; logP
  chromatographic logP: 3.5

## CO/N=C(/C(=O)OC)c1c(O)cccc1F [Example (II-1), methyl (2-fluoro-6-hydroxyphenyl)methoxyiminoacetate]
[2]; pH 2, log P (pH 2)
  chromatographic logP: 1.67

## CNC(=O)/C(=N/OC)c1c(O)cccc1F [Example (II-2), 2-(2-fluoro-6-hydroxyphenyl)-2-methoxyimino-N-methylacetamide]
[2]; pH 2, log P (pH 2)
  chromatographic logP: 1.18

## CO/N=C(/C(=O)OC)c1ccc(F)cc1O [Example (II-3), methyl (4-fluoro-2-hydroxyphenyl)methoxyiminoacetate]
[2]; pH 2, log P (pH 2)
  chromatographic logP: 2.62

## CNC(=O)/C(=N/OC)c1ccc(F)cc1O [Example (II-4), 2-(4-fluoro-2-hydroxyphenyl)-2-methoxyimino-N-methylacetamide]
[2]; pH 2, log P (pH 2)
  chromatographic logP: 1.56

## COC(=O)C(=O)c1c(F)cccc1OC1CCCCO1 (centres unmarked) [Example (XIII-1), methyl [2-fluoro-6-(tetrahydropyran-2-yloxy)phenyl]oxoacetate]
[2]; pH 2, log P (pH 2)
  chromatographic logP: 2.78

## COC(=O)C(=O)c1ccc(F)cc1O [Example (XIV-1), methyl (4-fluoro-2-hydroxyphenyl)oxo-acetate]
[2]; pH 2, log P (pH 2)
  chromatographic logP: 2.1

## COC(=O)C(=O)c1c(C)cccc1F [Example (XIX-1), methyl (2-fluoro-6-methylphenyl)oxoacetate]
[2]; pH 2, log P (pH 2)
  chromatographic logP: 2.44

## CO/N=C(/C(=O)OC)c1c(C)cccc1F [Example (XVIII-1), methyl (2-fluoro-6-methylphenyl)methoxyiminoacetate]
[2]; pH 2, log P (pH 2)
  chromatographic logP: 2.43
